# Source: patent US20080287527A1, “Pharmaceuticals for treating or preventing oral diseases” (HAWLEY & HAZEL (BVI) COMPANY LIMITED, priority 2007, published 2008)
# Legend:
# [1] = test system: Actinomyces viscosus (A. v) ATCC 27044; experiment: MIC by broth micro-dilution against Actinomyces viscosus; assay type: cell-based; conditions: 37 °C, 18-24 h, no unit in table, dilution series 250-0.12 mg/L (ceiling 250 ppm)
# Procedure: A single colony was picked from the Trypticase Digested Soybean peptone agar blood plate (TSA5B) of ordinarily stored bacteria species and used to inoculate corresponding broth culture medium, which was cultivated in a microaerobic environment (P.g needs anaerobic cultivation) with 95% air, 5% CO2 at 37.0° C.±1.0° C., […] Then corresponding broth cultivate medium was used to adjust the turbidity of the bacteria suspension to 0.5^# McFarland standard, equivalent to 1.0×10^8 CFU/mL.
# (§1) The operating steps were:
# (§2) a. Preparation of the stock solution of antibacterial pharmaceutical: 1% stock solution of various antibacterial pharmaceuticals was prepared with 100% pure ethanol as solvent. The prepared stock solution was filtered to eliminate bacteria, and was distributed into small portions to be used.
# (§3) b. Range of measured concentration: the present experiment used 250 ppm as the ceiling measured concentration of the anti-bacterial pharmaceutical.
# (§4) c. Measuring method: micro-dilution method. […]
# (§5) The bacteria to be tested and standard bacteria were prepared as above. […] 0.12 mg/L, and the final inoculation quantity was about […] or 5×10^6 bacteria in each well. […]
# [2] = test system: Streptococcus mutans (S. m) ATCC 25175; experiment: MIC by broth micro-dilution against Streptococcus mutans; assay type: cell-based; conditions: 37 °C, 18-24 h, no unit in table, dilution series 250-0.12 mg/L (ceiling 250 ppm)
# Procedure: (§6) A single colony was picked from the Trypticase Digested Soybean peptone agar blood plate (TSA5B) of ordinarily stored bacteria species and used to inoculate corresponding broth culture medium, which was cultivated in a microaerobic environment (P.g needs anaerobic cultivation) with 95% air, 5% CO2 at 37.0° C.±1.0° C., wherein S.m was cultivated for 18-24 h, and the remaining two species were cultivated for 40-48 h. Then corresponding broth cultivate medium was used to adjust the turbidity of the bacteria suspension to 0.5^# McFarland standard, equivalent to 1.0×10^8 CFU/mL.
# as §1, §2, §3, §4, §5
# [3] = test system: Porphyromonas gingivalis (P. g) ATCC 33277; experiment: MIC by broth micro-dilution against Porphyromonas gingivalis; assay type: cell-based; conditions: anaerobic, 37 °C, 18-24 h, no unit in table, dilution series 250-0.12 mg/L (ceiling 250 ppm)
# Procedure: as §6, §1, §2, §3, §4, §5
# GM-CSF = experiment: LUMINEX analysis of GM-CSF in KB cell supernatant; assay type: cell-based, human; conditions: concentration not given
# Procedure: (§7) Anti-inflammatory activity was assessed using the KB cell (the epidermis cancer cell in human oral cavity). During the experiment, the KB cell inoculated in the cultivating plate was treated with or without positive control or compound 5-hydroxymorusin. After the treatment, the supernatant of the cultivating medium was collected and stored in −80° C. refrigerators. Inflammation was assessed by measuring several inflammation markers: Prostaglandin E2 (PGE2) in the supernatant was detected by Enzyme-linked immunsorbent assay, and LUMINEX™ multifunctional liquid-phase chip analysis system was used for the detection of granulocyte monocyte colony stimulating factor (GM-CSF), tumor necrosis factor-alpha (TNF-α), and interleukins 1-beta and 6 (IL-1β and IL-6).
# (§8) LUMINEX™ multifunctional liquid-phase chip analyses of GM-CSF, TNF-α, IL-1 and IL-6: The 96-well plate was enclosed with enclosing liquid for 30 minutes. Fluorescent microspheres were added into the 96-well plate after dilution. The standard and the samples to be measured were added, and incubated overnight at 4° C. The next day, the supernatant was discarded and 50 μL GM-CSF, TNF-α, IL-1β and IL-6 antibodies were added to each well. After being rinsed for 4 times, the 96-well plate was placed in a shaking table, which was in ambient temperature, to keep the plate away from light for 1 hour. […]
# IL-1β = experiment: LUMINEX analysis of IL-1β in KB cell supernatant; assay type: cell-based, human; conditions: concentration not given
# Procedure: as §7, §8
# IL-6 = experiment: LUMINEX analysis of IL-6 in KB cell supernatant; assay type: cell-based, human; conditions: concentration not given
# Procedure: as §7, §8
# TNF-α = experiment: LUMINEX analysis of TNF-α in KB cell supernatant; assay type: cell-based, human; conditions: concentration not given
# Procedure: as §7, §8
structure (smiles),measurement,setting,value
Oc1cc(Cl)ccc1Oc1ccc(Cl)cc1Cl [Triclosan],"minimum inhibitive concentration (MIC), A. v ATCC 27044",[1],3.9
same,"minimum inhibitive concentration (MIC), S. m ATCC 25175",[2],3.9
same,"minimum inhibitive concentration (MIC), P. g ATCC 33277",[3],7.8
same,"anti-inflammatory effect, GM-CSF (the larger the value, the stronger the anti-inflammatory ability)",GM-CSF,5%
same,"anti-inflammatory effect, IL-1β (the larger the value, the stronger the anti-inflammatory ability)",IL-1β,7%
same,"anti-inflammatory effect, IL-6 (the larger the value, the stronger the anti-inflammatory ability)",IL-6,31%
same,"anti-inflammatory effect, TNF-α (the larger the value, the stronger the anti-inflammatory ability)",TNF-α,81%
